Measured values: paper PMC6212544, “Identification and Characterization of Novel CFTR Potentiators” (Frontiers in Pharmacology, 2018)

Key:
[1] = patients carrying the G551D mutation; ref Ramsey et al., 2011; cited from earlier work
[2] = biological target: T1, F508del CFTR (Homo sapiens, UniProt P13569, DEL508-508); experiment: TECC on corrector rescued F508del/F508del primary HBE cells; type: cell-based; parameters: endogenous in cells; host or cells: primary human bronchial epithelial cells, F508del/F508del donors (McGill University; University of North Carolina)
Description: Bronchial epithelial cells isolated from transplanted lungs from wild-type (WT), CF patients homozygous for the F508del mutation or heterozygous G551D/F508del or R334W/F508del patients, were obtained from McGill University (Montreal, Canada) and University of North Carolina (Chapel Hill, NC, United States). Cells were isolated from lungs obtained from donors undergoing a planned transplantation. These primary cells were cultured directly on type IV collagen-coated polycarbonate Transwell supports with a diameter of 6.5 mm and pore size of 0.4 μm (Costar, #3397) for 18–25 days in air liquid (ali) interface essentially as previously described ([Fulcher et al., 2005]). Trans-epithelial clamp circuit (TECC) recordings were performed using the TECC instrument developed and sold by EP Design (Bertem, Belgium). During the recording, the epithelial cells were bathed in a NaCl-Ringer solution (120 mM NaCl, 20 mM HEPES, 1.2 mM CaCl2, 1.2 mM MgCl2, 0.8 mM KH2PO4, 0.8 mM K2HPO4, 5 mM glucose, pH 7.4) on both the basolateral (640 μl) and the apical side (160 μl) and kept at 37°C. Apical amiloride was used to inhibit the endogenous ENaC currents (100 μM) while forskolin (10 μM) was applied on both the apical and basolateral sides to stimulate CFTR. All triggers and compounds used during the experiment were first dissolved in DMSO to a 1000 X concentrated solution, just prior to treatment a 10 X stock was prepared in the NaCl-Ringer solution which was used for addition of the correct concentration of trigger and or compound during the experiment. When using the F508del CFTR mutant, VX809 (3 μM) or GLPG2222 (1 μM) corrector was added on the basolateral side for 24 h to partially rescue F508del CFTR before adding the potentiator. For chronic experiments, the potentiator range was also added to the cells for 24 h and reapplied in the NaCl-ringer buffer prior to the electrophysiological recording. Measurements were done during a 20 min timeframe with recordings every 2 min. The transepithelial potential (PD) and transepithelial resistance (Rt) were measured in an open circuit and transformed to Ieq using Ohm’s law. The increase in Ieq (Δ Ieq) was used as a measure for the increased CFTR activity. EC50 values were generated by measuring impact of different concentrations of compound on Ieq in primary cells. For this purpose each transwell was treated with a different compound concentration. CFTRInh-172 was used at 10 μM to assess the specificity of the response. […] Data was fitted using a 3 parameter hill function of the form Response = Bottom + (Top-Bottom)/(1 + 10ˆ((LogEC50-concentration))) to determine EC50 values.

[3] = biological target: T1, F508del CFTR; experiment: YFP halide assay, CFBe41o- cells, low temperature rescued F508del CFTR; type: cell-based; conditions: 27°C 24 h, 10 μM forskolin, read-out: EC50, potentiation of low temperature rescued F508del CFTR
Description: CFBe41o- cells were plated in black 384-well microplates at a density of 1,500 cells per well. After 24 h, cells were transduced with adenoviruses containing F508del CFTR and YFP (H148Q/I152L/) F47L using a multiplicity of infection of 30 infectious units per cell for each adenovirus. The next day, for the low temperature corrected assay, cells were incubated at 27°C for 24 h, for the chemically corrected assay cells were treated with corrector for 24 h at 37°C. On the day of analysis, cells were washed five times with Dulbecco’s Phosphate-Buffered Saline (DPBS) containing Ca^2+ and Mg^2+ (Life Technologies) using a Microplate Washer (BioTek). Then, cells were treated with 10 μM forskolin and the desired concentration of potentiator in a volume of 30 μl and the plates were incubated at room temperature for 10 min, a timepoint optimized in previous experiments showing good window (positive control/negative control > 2) and signal to background ratio. The YFP fluorescence was recorded for 2 min, starting immediately before addition of 30 μl NaI buffer (375 mM NaI, 7.5 mM KI, 1.76 mM KH2PO4, 10.1 mM Na2HPO4, 13.75 mM glucose) to the wells, using a FDSS/μCell (Hamamatsu) fluorescence reader with a 480 nm excitation filter and a 540 nm emission filter. The capacity of potentiators to increase CFTR channel function was expressed as 1-[fluorescence 36 s after NaI addition (F)/fluorescence before NaI addition (F0)], a timepoint optimized previously, resulting in an optimal signal window. Data was normalized using the formula: normalized response = 100^∗ (absolute response – negative control response)/(VX770 response – negative response) as such, VX770 response corresponds to 100. For Dose-response experiments, data was fitted using a 4 parameter hill function of the form Response = Bottom + (Top-Bottom)/(1 + 10ˆ((LogEC50-concentration)^∗HillSlope)) to determine EC50 values.

[4] = biological target: T2, G551D CFTR (Homo sapiens, UniProt P13569, G551D); conditions: ref Jih and Hwang (2013); cited from earlier work
T2 construct: expressed in transfected cells; host or cells: HEK293, transient (jetPEI)

[5] = biological target: T1, F508del CFTR; experiment: Cell surface expression assay, HRP-tagged F508del CFTR in CFBe41o- cells; type: cell-based; parameters: expressed in transfected cells; conditions: 24 h co-incubation with 10 μM VX809, concentration range of potentiator
Description: CFBE41o^- TetON cells expressing HRP tagged F508del-CFTR ([Veit et al., 2012]) were seeded at a density of 4,000 cells per well in white 384-well plates (Greiner). Medium containing 500 ng/ml doxycycline was used to induce expression of the F508del-CFTR–HRP construct. After 3 days, cells were treated with corrector and/or potentiator compounds and transferred to an incubator at 33°C. On day 4, cells were washed 5 times with PBS containing Ca^2+ and Mg^2+ using a Bio-Tek plate washer and incubated with a chemiluminescent HRP substrate (SuperSignal West Pico Chemiluminescent Substrate, Thermo Scientific) for 15 min. Chemiluminescence was measured using an Envision plate reader (Perkin Elmer).

T1 sequence (P13569 with tags, fused parts or gaps DEL508-508): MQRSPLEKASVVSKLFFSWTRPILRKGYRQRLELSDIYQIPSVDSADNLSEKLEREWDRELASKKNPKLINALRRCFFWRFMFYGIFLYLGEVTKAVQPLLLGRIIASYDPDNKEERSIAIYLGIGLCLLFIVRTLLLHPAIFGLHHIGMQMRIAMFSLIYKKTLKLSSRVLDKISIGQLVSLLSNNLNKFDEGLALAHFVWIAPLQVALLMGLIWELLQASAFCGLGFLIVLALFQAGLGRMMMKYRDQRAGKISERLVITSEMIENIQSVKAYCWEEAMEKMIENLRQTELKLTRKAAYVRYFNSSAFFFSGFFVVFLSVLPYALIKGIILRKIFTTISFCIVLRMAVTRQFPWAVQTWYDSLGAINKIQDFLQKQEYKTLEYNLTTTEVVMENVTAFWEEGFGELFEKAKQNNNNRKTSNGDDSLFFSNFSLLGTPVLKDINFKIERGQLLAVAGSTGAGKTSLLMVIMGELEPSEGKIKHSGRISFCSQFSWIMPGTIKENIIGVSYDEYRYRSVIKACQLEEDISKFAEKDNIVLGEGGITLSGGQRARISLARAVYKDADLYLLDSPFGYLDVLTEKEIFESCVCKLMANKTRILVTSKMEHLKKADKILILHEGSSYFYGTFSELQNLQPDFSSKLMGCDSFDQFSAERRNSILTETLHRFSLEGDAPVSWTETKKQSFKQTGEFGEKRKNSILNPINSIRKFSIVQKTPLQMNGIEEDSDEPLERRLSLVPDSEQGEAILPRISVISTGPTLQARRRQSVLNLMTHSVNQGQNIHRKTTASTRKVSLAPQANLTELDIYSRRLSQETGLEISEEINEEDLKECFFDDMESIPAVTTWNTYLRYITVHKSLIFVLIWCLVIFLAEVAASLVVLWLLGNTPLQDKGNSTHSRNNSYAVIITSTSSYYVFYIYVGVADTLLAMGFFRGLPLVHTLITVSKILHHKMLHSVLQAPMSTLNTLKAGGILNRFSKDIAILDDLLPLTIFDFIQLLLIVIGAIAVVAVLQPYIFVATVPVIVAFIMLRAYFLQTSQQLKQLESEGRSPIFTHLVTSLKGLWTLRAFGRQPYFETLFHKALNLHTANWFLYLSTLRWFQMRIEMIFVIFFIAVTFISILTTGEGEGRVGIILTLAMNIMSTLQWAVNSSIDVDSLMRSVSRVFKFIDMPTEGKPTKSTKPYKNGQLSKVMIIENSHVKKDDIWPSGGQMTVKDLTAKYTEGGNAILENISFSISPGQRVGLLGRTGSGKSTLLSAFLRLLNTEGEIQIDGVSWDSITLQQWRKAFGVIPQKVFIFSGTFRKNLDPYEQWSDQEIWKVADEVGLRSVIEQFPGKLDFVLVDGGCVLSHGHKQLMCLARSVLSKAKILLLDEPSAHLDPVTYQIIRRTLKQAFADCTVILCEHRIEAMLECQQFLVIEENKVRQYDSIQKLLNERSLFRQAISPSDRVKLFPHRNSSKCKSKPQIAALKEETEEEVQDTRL
T2 sequence (P13569 whole entry G551D): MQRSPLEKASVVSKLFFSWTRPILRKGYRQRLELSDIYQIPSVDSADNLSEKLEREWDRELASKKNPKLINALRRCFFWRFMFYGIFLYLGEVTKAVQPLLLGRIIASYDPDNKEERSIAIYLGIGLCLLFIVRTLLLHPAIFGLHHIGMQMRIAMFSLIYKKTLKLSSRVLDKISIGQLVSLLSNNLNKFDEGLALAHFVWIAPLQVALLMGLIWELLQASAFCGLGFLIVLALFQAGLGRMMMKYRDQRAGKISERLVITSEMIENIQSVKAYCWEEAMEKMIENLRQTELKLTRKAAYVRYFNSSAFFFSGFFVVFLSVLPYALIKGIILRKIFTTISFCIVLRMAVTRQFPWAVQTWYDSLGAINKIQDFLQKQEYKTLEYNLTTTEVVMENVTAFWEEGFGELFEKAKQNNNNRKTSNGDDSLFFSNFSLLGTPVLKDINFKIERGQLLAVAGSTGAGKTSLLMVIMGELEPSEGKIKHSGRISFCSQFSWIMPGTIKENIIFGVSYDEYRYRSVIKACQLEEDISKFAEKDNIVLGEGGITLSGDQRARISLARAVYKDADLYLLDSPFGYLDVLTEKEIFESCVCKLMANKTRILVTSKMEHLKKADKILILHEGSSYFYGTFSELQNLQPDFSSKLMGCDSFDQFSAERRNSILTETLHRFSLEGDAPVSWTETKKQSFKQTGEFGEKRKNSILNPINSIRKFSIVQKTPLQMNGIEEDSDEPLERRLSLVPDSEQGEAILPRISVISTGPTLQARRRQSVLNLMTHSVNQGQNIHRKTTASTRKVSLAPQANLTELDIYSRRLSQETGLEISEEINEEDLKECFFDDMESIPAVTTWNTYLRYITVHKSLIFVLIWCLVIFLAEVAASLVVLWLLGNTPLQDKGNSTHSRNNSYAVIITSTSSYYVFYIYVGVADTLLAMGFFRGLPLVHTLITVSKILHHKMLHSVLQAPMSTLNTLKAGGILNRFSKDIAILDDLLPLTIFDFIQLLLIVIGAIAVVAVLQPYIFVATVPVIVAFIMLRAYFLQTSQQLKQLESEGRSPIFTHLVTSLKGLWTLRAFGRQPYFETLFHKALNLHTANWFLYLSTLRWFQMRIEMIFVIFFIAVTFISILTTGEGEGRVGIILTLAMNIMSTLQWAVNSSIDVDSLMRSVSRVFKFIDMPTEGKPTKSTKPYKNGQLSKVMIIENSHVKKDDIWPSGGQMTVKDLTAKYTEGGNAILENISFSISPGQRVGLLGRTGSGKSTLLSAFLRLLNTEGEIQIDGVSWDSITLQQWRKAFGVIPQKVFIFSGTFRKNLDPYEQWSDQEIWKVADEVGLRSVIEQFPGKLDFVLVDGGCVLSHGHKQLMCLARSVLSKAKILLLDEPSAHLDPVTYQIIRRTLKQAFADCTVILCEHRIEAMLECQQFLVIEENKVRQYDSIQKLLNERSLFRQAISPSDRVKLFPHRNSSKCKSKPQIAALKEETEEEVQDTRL

- EC50 ([2]; VX809 3 μM 24 h, acute potentiator addition, 10 μM forskolin, read-out: EC50 on VX809 corrected F508del/F508del HBEs (TECC)): 80.7 ± 21.7 nM
- EC50 [3]: 126 ± 10.9 nM
Compound: CC(C)(C)c1cc(C(C)(C)C)c(NC(=O)c2c[nH]c3ccccc3c2=O)cc1O [VX770, N -(2,4-Di-tert-butyl-5-hydroxyphenyl)-4-oxo-1,4-dihydroquinoline-3-carboxamide, reference compound]
- Improvement of lung function [1]: 10.6%
- Decrease in corrected F508del CFTR channel activity in chronic versus acute setting ([2]; 10 μM potentiator, corrected F508del/F508del HBE, 24 h): decrease in F508del CFTR channel activity
- Increase of macroscopic G551D CFTR current [4]: 10 fold
- Effect on cell surface expression of VX809 rescued F508del CFTR [5]: reduces the level of cell surface expressed F508del CFTR at all concentrations tested
